From patent publication US20110245091A1, “REACTION PROGRESS ASSAY FOR SCREENING BIOLOGICAL ACTIVITY OF ENZYMES” (priority 2010, published 2011)

Molecular target: T1, HIV-I reverse transcriptase (Human immunodeficiency virus type 1 group M subtype B, UniProt P04585)
T1 construct: HIV-I RNA-dependent DNA polymerase (reverse transcriptase); purchased Worthington LS05006
Experiment: Reaction progress luminescence assay of cDNA synthesis by HIV-I reverse transcriptase (luciferase detection of dATP)
Type: biochemical
Description: The reaction was set by adding: 16 µL of RNAse-free water; 2 µL of 10× reaction buffer (400 mM Tris-HCl, 60 mM MgCl2, 100 mM Dithiothreitol, 20 mM spermidine, pH 7.9 @ 25° C.); 2 µL of template, polyuridylic acid at 1 µg/µL (Midland Certified Reagent Company, Cat. No. P-3004); 2 µL of primer poly(A)18 at 0.5 µg/µL (Polydeoxyadenylate, 18 base long purchased from Integrated DNA technologies); 20 µM of dATP; 3 U of HIV-I (Worthington, Cat. No. LS05006); 3 µL of ATP detection solution prepared by diluting luciferase (EC 1.13.12.7) at 3 µg/mL in 0.1M Tris-acetate pH 7.7, 2 mM EDTA, 10 mM magnesium acetate, 0.1% BSA, 1 mM dithiothreitol, 0.4 mg/mL PVP, and 0.4 mM D-luciferin. A 5 µL of reaction solution has been added to a well of 384-well plate and the luminescence intensity vs. time was recorded on Orion II microplate luminometer at 25° C. (Berthold detection Systems (Pforzheim, Germany)). A first derivative, ∂l(t)l∂t, for the luminescence intensity has been calculated. The derivative was calculated by selecting a group of three or more consecutive measurements of the luminescence intensity and calculating by a least square method the “instant” slope of the luminescent intensity which said slope represents the first derivative of the luminescence at the time when the respective measurements were made. […]

## C[C@H](Cn1cnc2c(N)ncnc21)OCP(=O)(O)O [MT-4S]
MT-4S at 1.2 nM and 3.7 nM
  mechanism of inhibition (crossing of trend lines): non-competitive
Inhibitor at 0, 1.2 and 3.7 nM, 20 μM dATP, 25° C., read-out: inhibition constant Ki
  Ki: 0.9 ± 0.15 nM
